Source: patent US20230167070A1, “MODULATORS OF TREX1” (Constellation Pharmaceuticals, Inc., priority 2020, published 2023)

Legend:
[1] = biological target: T1, human TREX2 (residues M44-A279) (Homo sapiens, UniProt Q9BQ50); test: TREX2 Biochemical Assay (fluorescence, dsDNA substrate degradation); conditions: 2.5 nM TREX2, 60 nM dsDNA substrate, 25 minutes at room temperature
T1 construct: human TREX2 (residues M44-A279, expressed in E. coli); made in house; host or cells: E. coli
T1 sequence (Q9BQ50 44-279 isoform Q9BQ50-1): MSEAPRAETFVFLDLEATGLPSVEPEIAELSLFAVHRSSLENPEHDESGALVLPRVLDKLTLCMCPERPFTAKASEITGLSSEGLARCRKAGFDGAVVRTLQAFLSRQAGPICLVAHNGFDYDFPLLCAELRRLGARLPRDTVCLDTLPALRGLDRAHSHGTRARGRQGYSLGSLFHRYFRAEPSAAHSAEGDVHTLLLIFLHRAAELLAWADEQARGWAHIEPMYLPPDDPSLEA
Protocol: Degradation of the dsDNA liberates free fluorophore to produce a fluorescent signal. Specifically, 7.5 μL of N-terminally His-Tev tagged human TREX2 (residues M44-A279, expressed in E. coli and purified in house) in reaction buffer (50 mM Tris (pH 7.4), 150 mM NaCl, 2 mM DTT, 0.1 mg/mL BSA, 0.01% (v/v) Tween-20 and 100 mM MgCl2) was added to a 384-well Black ProxiPlate Plus (Perkin Elmer) which already contained compound (150 nL) at varying concentrations as a 10 point dose-response in DMSO. To this was added 7.5 μL of dsDNA substrate (Strand A: 5′ TEX615/GCT AGG CAG 3′; Strand B: 5′ CTG CCT AGC/IAbRQSp (IDT)) in reaction buffer. Final concentrations were 2.5 nM TREX2, 60 nM dsDNA substrate in reaction buffer with 1.0% DMSO (v/v). After 25 minutes at room temperature, reactions were quenched by the addition of 5 μL of stop buffer (same as reaction buffer plus 200 mM EDTA). Final concentrations in the quenched reaction mixture were […] TREX2, 45 nM DNA and 50 mM EDTA in a volume of 20 μL. After a 5-minute incubation at room temperature, plates were read in a laser sourced Envision (Perkin-Elmer), measuring fluorescence at 615 nm following excitation w/570 nm light. IC50 values were calculated by comparing the measured fluorescence at 615 nm ratio relative to control wells pre-quenched w/stop buffer (100% inhibition) and no inhibitor (0% inhibition) controls as using non-linear least square four parameter fits and either Genedata or GraphPad Prism (GraphPad Software, Inc.).

full length human TREX1 = biological target: T2, full length human TREX1 (Homo sapiens, UniProt Q9NSU2); test: TREX1 Biochemical Assay (fluorescence, dsDNA substrate degradation); conditions: 150 pM TREX1, 60 nM dsDNA substrate, 25 minutes at room temperature
T2 construct: N-terminally His-Tev tagged full length human TREX1; made in house; host or cells: E. coli
T2 sequence (Q9NSU2 1-314): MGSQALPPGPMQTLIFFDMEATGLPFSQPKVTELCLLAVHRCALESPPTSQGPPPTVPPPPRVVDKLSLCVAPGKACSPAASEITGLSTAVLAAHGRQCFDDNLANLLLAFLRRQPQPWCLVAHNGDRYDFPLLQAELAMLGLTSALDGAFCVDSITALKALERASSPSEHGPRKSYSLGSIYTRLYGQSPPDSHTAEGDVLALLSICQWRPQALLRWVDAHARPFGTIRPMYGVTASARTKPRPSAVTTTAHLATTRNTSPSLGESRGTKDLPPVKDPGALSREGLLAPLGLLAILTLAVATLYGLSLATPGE
Protocol: Degradation of the dsDNA liberates free fluorophore to produce a fluorescent signal. Specifically, 7.5 μL of N-terminally His-Tev tagged full length human TREX1 (expressed in E. coli and purified in house) in reaction buffer (50 mM Tris (pH 7.4), 150 mM NaCl, 2 mM DTT, 0.1 mg/mL BSA, 0.01% (v/v) Tween-20 and 100 mM MgCl2) was added to a 384-well Black ProxiPlate Plus (Perkin Elmer) which already contained compound (150 nL) at varying concentrations as a 10 point dose-response in DMSO. To this was added 7.5 μL of dsDNA substrate (Strand A: 5′ TEX615/GCT AGG CAG 3′; Strand B: 5′ CTG CCT AGC/IAbRQSp (Integrated DNA Technologies)) in reaction buffer. Final concentrations were 150 pM TREX1, 60 nM dsDNA substrate in reaction buffer with 1.0% DMSO (v/v). After 25 minutes at room temperature, reactions were quenched by the addition of 5 μL of stop buffer (same as reaction buffer plus 200 mM EDTA). Final concentrations in the quenched reaction were 112.5 pM TREX1, 45 nM DNA and 50 mM EDTA in a volume of 20 μL. After a 5-minute incubation at room temperature, plates were read in a laser sourced Envision (Perkin-Elmer), measuring fluorescence at 615 nm following excitation w/570 nm light. IC50 values were calculated by comparing the measured fluorescence at 615 nm ratio relative to control wells pre-quenched w/stop buffer (100% inhibition) and no inhibitor (0% inhibition) controls as using non-linear least square four parameter fits and either Genedata or GraphPad Prism (GraphPad Software, Inc.).

SMILES | IC50 [1] | IC50 (full length human TREX1)
CN(c1nc(C(=O)Nc2cc(F)cc(F)c2)c(O)c(=O)n1C)C(c1ccccc1)c1ccccc1 [Example 21, 2-(benzhydryl(methyl)amino)-N-(3,5-difluorophenyl)-5-hydroxy-1-methyl-6-oxo-1,6-dihydropyrimidine-4-carboxamide] | < 1 µM | 0.1 to 1 µM
CN(c1nc(C(=O)Nc2cccc(F)c2F)c(O)c(=O)n1C)C(c1ccccc1)c1ccccc1 [Example 22, 2-(benzhydryl(methyl)amino)-N-(2,3-difluorophenyl)-5-hydroxy-1-methyl-6-oxo-1,6-dihydropyrimidine-4-carboxamide] | < 1 µM | < 0.1 µM
CN(c1nc(C(=O)Nc2cc(F)ccn2)c(O)c(=O)n1C)C(c1ccccc1)c1ccccc1 [Example 23, 2-(benzhydryl(methyl)amino)-N-(4-fluoropyridin-2-yl)-5-hydroxy-1-methyl-6-oxo-1,6-dihydropyrimidine-4-carboxamide] | 1 to 10 µM | 1 to 10 µM
CN(c1nc(C(=O)Nc2cncc(F)c2)c(O)c(=O)n1C)C(c1ccccc1)c1ccccc1 [Example 24, 2-(benzhydryl(methyl)amino)-N-(5-fluoropyridin-3-yl)-5-hydroxy-1-methyl-6-oxo-1,6-dihydropyrimidine-4-carboxamide] | 1 to 10 µM | 0.1 to 1 µM
CN(c1nc(C(=O)Nc2ccccn2)c(O)c(=O)n1C)C(c1ccccc1)c1ccccc1 [Example 25, 2-(benzhydryl(methyl)amino)-5-hydroxy-1-methyl-6-oxo-N-(pyridin-2-yl)-1,6-dihydropyrimidine-4-carboxamide] | < 1 µM | 0.1 to 1 µM
CN(c1nc(C(=O)Nc2cncnc2)c(O)c(=O)n1C)C(c1ccccc1)c1ccccc1 [Example 26, 2-(benzhydryl(methyl)amino)-5-hydroxy-1-methyl-6-oxo-N-(pyrimidin-5-yl)-1,6-dihydropyrimidine-4-carboxamide] | 1 to 10 µM | 1 to 10 µM
CN(c1nc(C(=O)Nc2cccc(C(F)(F)F)c2)c(O)c(=O)n1C)C(c1ccccc1)c1ccccc1 [Example 27, 2-(benzhydryl(methyl)amino)-5-hydroxy-1-methyl-6-oxo-N-(3-(trifluoromethyl)phenyl)-1,6-dihydropyrimidine-4-carboxamide] | 10 to 100 µM | > 10 µM
CN(c1nc(C(=O)Nc2ccc(C(F)(F)F)cc2)c(O)c(=O)n1C)C(c1ccccc1)c1ccccc1 [Example 28, 2-(benzhydryl(methyl)amino)-5-hydroxy-1-methyl-6-oxo-N-(4-(trifluoromethyl)phenyl)-1,6-dihydropyrimidine-4-carboxamide] | 10 to 100 µM | > 10 µM
CN(c1nc(C(=O)Nc2ccc(F)cc2)c(O)c(=O)n1C)[C@@H](c1ccccc1)c1ccccc1Cl [Example 30, (S)-2-(((2-chlorophenyl)(phenyl)methyl)(methyl)amino)-N-(4-fluorophenyl)-5-hydroxy-1-methyl-6-oxo-1,6-dihydropyrimidine-4-carboxamide] | < 1 µM | 0.1 to 1 µM
CN(c1nc(C(=O)Nc2cncs2)c(O)c(=O)n1C)C(c1ccccc1)c1ccccc1 [Example 31, 2-(benzhydryl(methyl)amino)-5-hydroxy-1-methyl-6-oxo-N-(thiazol-5-yl)-1,6-dihydropyrimidine-4-carboxamide] | 1 to 10 µM | 0.1 to 1 µM
Cc1nocc1NC(=O)c1nc(N(C)C(c2ccccc2)c2ccccc2)n(C)c(=O)c1O [Example 32, 2-(benzhydryl(methyl)amino)-5-hydroxy-1-methyl-N-(3-methylisoxazol-4-yl)-6-oxo-1,6-dihydropyrimidine-4-carboxamide] | 1 to 10 µM | < 0.1 µM
Cc1noc(C)c1NC(=O)c1nc(N(C)C(c2ccccc2)c2ccccc2)n(C)c(=O)c1O [Example 33, 2-(benzhydryl(methyl)amino)-N-(3,5-dimethylisoxazol-4-yl)-5-hydroxy-1-methyl-6-oxo-1,6-dihydropyrimidine-4-carboxamide] | 10 to 100 µM | 0.1 to 1 µM
CN(c1nc(C(=O)Nc2cnnn2C)c(O)c(=O)n1C)C(c1ccccc1)c1ccccc1 [Example 34, 2-(benzhydryl(methyl)amino)-5-hydroxy-1-methyl-N-(1-methyl-1H-1,2,3-triazol-5-yl)-6-oxo-1,6-dihydropyrimidine-4-carboxamide] | 1 to 10 µM | 1 to 10 µM
CN(c1nc(C(=O)Nc2ccnn2C)c(O)c(=O)n1C)C(c1ccccc1)c1ccccc1 [Example 35, 2-(benzhydryl(methyl)amino)-5-hydroxy-1-methyl-N-(1-methyl-1H-pyrazol-5-yl)-6-oxo-1,6-dihydropyrimidine-4-carboxamide] | 10 to 100 µM | 1 to 10 µM
Cc1oncc1NC(=O)c1nc(N(C)C(c2ccccc2)c2ccccc2)n(C)c(=O)c1O [Example 36, 2-(benzhydryl(methyl)amino)-5-hydroxy-1-methyl-N-(5-methylisoxazol-4-yl)-6-oxo-1,6-dihydropyrimidine-4-carboxamide] | 1 to 10 µM | 0.1 to 1 µM
Cc1onc(NC(=O)c2nc(N(C)C(c3ccccc3)c3ccccc3)n(C)c(=O)c2O)c1C [Example 37, 2-(benzhydryl(methyl)amino)-N-(4,5-dimethylisoxazol-3-yl)-5-hydroxy-1-methyl-6-oxo-1,6-dihydropyrimidine-4-carboxamide] | 10 to 100 µM | 1 to 10 µM
CN(c1nc(C(=O)Nc2nnco2)c(O)c(=O)n1C)C(c1ccccc1)c1ccccc1 [Example 38, 2-(benzhydryl(methyl)amino)-5-hydroxy-1-methyl-N-(1,3,4-oxadiazol-2-yl)-6-oxo-1,6-dihydropyrimidine-4-carboxamide] | 10 to 100 µM | 1 to 10 µM
CN(c1nc(C(=O)Nc2ccon2)c(O)c(=O)n1C)C(c1ccccc1)c1ccccc1 [Example 39, 2-(benzhydryl(methyl)amino)-5-hydroxy-N-(isoxazol-3-yl)-1-methyl-6-oxo-1,6-dihydropyrimidine-4-carboxamide] | 10 to 100 µM | 0.1 to 1 µM
